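96-well plates; 48 h exposure; 5 concentrations. Endpoints by linear interpolation between flanking doses. Not reached: highest tested concentration assigned. GI50 = concentration required for 50% inhibition of growth. At the TGI there is no net growth.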

The subject of one test is OVCAR-3 ovarian. Briefly: inhibition of tumour cell growth, NCI panel, 48 h.
`CN1CCN(CCCn2c(=O)c3sc4ncccc4c3n3nnc(-c4ccccc4)c23)CC1`: the GI50 is 2.3 µM and the TGI stood at 7.58 µM.

Regarding `CC(=O)OC1COC(n2ccc3cc(Br)c([N+](=O)[O-])cc32)C(OC(C)=O)C1OC(C)=O` (centres undefined), the TGI was determined as 65.6 µM.

Consider `NC1(C(=O)OCc2ccccc2)CCCC1`, for which the TGI turned out to be 28.7 µM.

As to `O=C(/C=C/c1ccc(Cl)cc1)c1ccc(Nc2ccnc3cc(Cl)ccc23)cc1`, the GI50 was 32 µM and the TGI was greater than 100 µM.

As to `CCCCCCCC(=O)SCC/C=C/[C@@H]1CC(=O)NCc2cc(ccn2)C2=N[C@@](C)(CS2)C(=O)N[C@@H](C(C)C)C(=O)O1`, the GI50 is 0.0362 µM and the TGI stood at 0.362 µM.

Compound `CSc1nc(NC2OCC(OC(C)=O)C(OC(C)=O)C2OC(C)=O)c(N=CC=Nc2c(NC3OCC(OC(C)=O)C(OC(C)=O)C3OC(C)=O)nc(SC)[nH]c2=O)c(=O)[nH]1` (centres undefined) gave a TGI greater than 100 µM.

On to `Cn1cnc([N+](=O)[O-])c1Sc1nc2ccccc2[nH]1`, for which the TGI was greater than 100 µM.

In turn, `N#CC(C#N)=CNC(N)=S` showed a TGI greater than 100 µM.

For the compound `C[C@@H]1CCC2[C@@H](C)[C@@H](OCC(CO[C@H]3OC4O[C@@]5(C)CC[C@H]6[C@H](C)CCC([C@H]3C)[C@@]46OO5)OC(=O)CCC(=O)O)OC3O[C@@]4(C)CC[C@@H]1[C@]32OO4` (some centres undefined), the GI50 is 0.02 µM and the TGI stood at 15.8 µM.

For `COc1cc(OC)cc(-c2cc(=O)c3c(OC)c(OC)c(OC)c(OC)c3o2)c1`, the TGI is greater than 100 µM.

The compound `COc1cc2c(c(OC)c1OC)-c1ccc(OC)c(=O)cc1C(NC(=O)c1ccc(N=[N+]=[N-])cc1)CC2` (centres undefined) gave a TGI of 0.0555 µM.

Regarding `O=C(/C=C\c1ccc(Cl)c(Cl)c1)c1ccc(Cl)cc1Cl`, the TGI is 35.7 µM.

As to `CCOC(=O)C(=C=C=C(c1ccccc1)c1ccccc1)C(=O)OCC`, the TGI came to 31 µM.

In turn, `CC(C)=Cc1cc(C(=O)Nc2ccc(Cl)c(Cl)c2)nc(N)n1` gave a TGI greater than 100 µM.

Take `COc1cccc(-c2nc(-c3ccc(NC(=O)C(C)C)cc3)[nH]c2-c2ccnc(Br)c2)c1`: the GI50 is 3.38 µM and the TGI is greater than 100 µM.

With `O=C(CSc1ccc(Cl)cc1)Nc1ccc(-c2nc3ccccc3s2)c(Cl)c1`, the GI50 is 2.43 µM and the TGI stood at 8.01 µM.

For another test, the system named is M14 melanoma. Briefly: inhibition of tumour cell growth, NCI panel, 48 h.
For `CN(C(=O)c1ccc(C(F)(F)F)cc1)c1ccc(Oc2ccc3c(c2)cc(C(=O)N2CCN(Cc4ccc(OC(F)F)cc4)CC2)n3C)nc1`, the GI50 is greater than 100 µM and the TGI was greater than 100 µM.

As for `COc1ccc(S(=O)(=O)NNS(C)(=O)=O)cc1`, the TGI is greater than 100 µM.

`Nc1ncnc2c1nnn2C1OC(CO)C(O)C1O` (centres undefined): the GI50 is 0.261 µM and the TGI worked out at 4.91 µM.

As for `CN1CCN(CCCn2c(=O)c3sc4ncccc4c3n3nnc(-c4ccccc4)c23)CC1`, the GI50 is 2.13 µM and the TGI was determined as 7.38 µM.

As for `CC(=O)OC1COC(n2ccc3cc(Br)c([N+](=O)[O-])cc32)C(OC(C)=O)C1OC(C)=O` (centres undefined), the TGI was greater than 100 µM.

With `NC1(C(=O)OCc2ccccc2)CCCC1`, the TGI came out at 35.2 µM.

Regarding `O=C(/C=C/c1ccc(Cl)cc1)c1ccc(Nc2ccnc3cc(Cl)ccc23)cc1`, the GI50 is 26.8 µM and the TGI is greater than 100 µM.

For the compound `CCCCCCCC(=O)SCC/C=C/[C@@H]1CC(=O)NCc2cc(ccn2)C2=N[C@@](C)(CS2)C(=O)N[C@@H](C(C)C)C(=O)O1`, the GI50 is 0.0111 µM and the TGI was greater than 13.3 µM.

`CSc1nc(NC2OCC(OC(C)=O)C(OC(C)=O)C2OC(C)=O)c(N=CC=Nc2c(NC3OCC(OC(C)=O)C(OC(C)=O)C3OC(C)=O)nc(SC)[nH]c2=O)c(=O)[nH]1` (centres undefined) came in with a TGI greater than 100 µM.

`Cn1cnc([N+](=O)[O-])c1Sc1nc2ccccc2[nH]1`: the TGI stood at 56.3 µM.

Consider `N#CC(C#N)=CNC(N)=S`, for which the TGI was greater than 100 µM.

`C[C@@H]1CCC2[C@@H](C)[C@@H](OCC(CO[C@H]3OC4O[C@@]5(C)CC[C@H]6[C@H](C)CCC([C@H]3C)[C@@]46OO5)OC(=O)CCC(=O)O)OC3O[C@@]4(C)CC[C@@H]1[C@]32OO4` (some centres undefined): the GI50 was 4.05 µM and the TGI stood at 26.9 µM.

`COc1cc(OC)cc(-c2cc(=O)c3c(OC)c(OC)c(OC)c(OC)c3o2)c1` had a TGI greater than 100 µM.

Regarding `COc1cc2c(c(OC)c1OC)-c1ccc(OC)c(=O)cc1C(NC(=O)c1ccc(N=[N+]=[N-])cc1)CC2` (centres undefined), the TGI is 31.2 µM.

As for `O=C(/C=C\c1ccc(Cl)c(Cl)c1)c1ccc(Cl)cc1Cl`, the TGI was 52.4 µM.

`CCOC(=O)C(=C=C=C(c1ccccc1)c1ccccc1)C(=O)OCC` showed a TGI of 41.5 µM.

`c1ccc(COc2cccc3ccc[n+](Cc4ccccc4)c23)cc1` had a TGI of 60.2 µM.

`CC(C)=Cc1cc(C(=O)Nc2ccc(Cl)c(Cl)c2)nc(N)n1` displayed a TGI greater than 100 µM.

As for `COc1cccc(-c2nc(-c3ccc(NC(=O)C(C)C)cc3)[nH]c2-c2ccnc(Br)c2)c1`, the GI50 was 3.3 µM and the TGI was greater than 100 µM.

`O=C(CSc1ccc(Cl)cc1)Nc1ccc(-c2nc3ccccc3s2)c(Cl)c1`: the GI50 was 4.87 µM and the TGI was 33.8 µM.

The next test concerns HCT-15 colon. Briefly: inhibition of tumour cell growth, NCI panel, 48 h.
On to `CN(C(=O)c1ccc(C(F)(F)F)cc1)c1ccc(Oc2ccc3c(c2)cc(C(=O)N2CCN(Cc4ccc(OC(F)F)cc4)CC2)n3C)nc1`, for which the GI50 is greater than 100 µM and the TGI was greater than 100 µM.

`Nc1ncnc2c1nnn2C1OC(CO)C(O)C1O` (centres undefined) yielded a TGI of 20.6 µM.

As to `CN1CCN(CCCn2c(=O)c3sc4ncccc4c3n3nnc(-c4ccccc4)c23)CC1`, the GI50 was 6.19 µM and the TGI came out at 13.2 µM.

On to `CC(=O)OC1COC(n2ccc3cc(Br)c([N+](=O)[O-])cc32)C(OC(C)=O)C1OC(C)=O` (centres undefined), for which the TGI was greater than 100 µM.

`NC1(C(=O)OCc2ccccc2)CCCC1` had a TGI of 60.8 µM.

As for `O=C(/C=C/c1ccc(Cl)cc1)c1ccc(Nc2ccnc3cc(Cl)ccc23)cc1`, the GI50 was 23.7 µM and the TGI is greater than 100 µM.

Take `CCCCCCCC(=O)SCC/C=C/[C@@H]1CC(=O)NCc2cc(ccn2)C2=N[C@@](C)(CS2)C(=O)N[C@@H](C(C)C)C(=O)O1`: the GI50 is 0.141 µM and the TGI was greater than 33.3 µM.

Compound `CSc1nc(NC2OCC(OC(C)=O)C(OC(C)=O)C2OC(C)=O)c(N=CC=Nc2c(NC3OCC(OC(C)=O)C(OC(C)=O)C3OC(C)=O)nc(SC)[nH]c2=O)c(=O)[nH]1` (centres undefined) returned a TGI greater than 100 µM.

As for `Cn1cnc([N+](=O)[O-])c1Sc1nc2ccccc2[nH]1`, the TGI was 33.1 µM.

`N#CC(C#N)=CNC(N)=S` registered a TGI greater than 100 µM.

(Values after PubChem BioAssay (NCI).)
